Literature values, collected in patent US20070237815A1 (priority 2006, published 2007).

Conditions: in the elderly

NS(=O)(=O)c1cc(C2(O)NC(=O)c3ccccc32)ccc1Cl (stereo not shown) [chlorthalidone]
half-life: approximately 72 hours
